{
  "source": "patent US9738669B2",
  "about": "“Pentaaza macrocyclic ring complexes possessing oral bioavailability” (Galera Labs, LLC, priority 2015, dated 2017)",
  "key": {"[1]": {"experiment": "Intraduodenal (id) bioavailability screen in minipigs, plasma level of parent Mn complex by HPLC/MS/MS", "assay_type": "in vivo, Gottingen minipig", "settings": "id 10 mg/kg, vs 1 mg/kg iv parent chloro complex, AUC0→24 h", "method": "Compounds were screened for oral bioavailability by injecting the formulated prodrugs directly into the duodenum (intraduodenal or id administration) of the minipig test subjects, thus bypassing the acidic environment of the stomach and thereby eliminating potentially misleading oral bioavailability results that could arise from alteration of the test article drug in the acid environment of the stomach.\nThe studies were conducted at Xenometrics LLC (Stillwell, Kans.) and the id bioavailability was determined using various axial ligand derivative complexes of GC4419, GC4444, GC4403 and GC4401.\nMale Gottingen minipigs (4-5 mo old, 9-12 kg weight) were purchased from Marshall BioResources and housed at Xenometrics. […] The distal end was exteriorized with a reusable accessible hub (see surgical details below). During a recovery period of at least 2 weeks the minipigs were handled daily to acclimate them to the test procedures, i.e., id dosing and blood collections. For each experiment, each minipig received a test article drug dissolved or suspended in an excipient vehicle. […] All dosing experiments were conducted in fasted animals. Food was withdrawn from the minipigs 16 hours before dosing. The minipigs had ad libitum access to water. Dosed minipigs were allowed access to food 6 hour after dosing. The test article was administered at a dose of 10 mg/kg parent drug in 0.1 mL/kg vehicle (e.g., 1.5 mL in 15 kg minipig) as a bolus injection (˜1 minute) via the id cannula. The actual amount of total test article drug administered varied with the formula weight of the prodrug. An equal volume of excipient vehicle was used to flush the cannula after the test article was administered. Approximately 6 hours later, corn oil was used to flush the cannula. After approximately 24 hours post-dose, the catheter was flushed with sterile saline solution and capped. At the following time-points 0.25, 0.5, 1, 2, 4, 8, 24 and 48 hour post-injection, 2 mL blood samples were collected by cranial vena cava puncture (4 mL Sodium heparin Vacutainer, 20 g 1.5″ needle) after the skin surface was wiped with ethanol. The minipig was placed in a sling in a recumbent position without anesthesia for the collection of blood samples. The minipigs were never used more than once per 7 days for experimentation. The blood samples were kept on ice until processed for plasma. Blood samples were centrifuged at 1200×g for ten minutes at 4° C. and plasma samples were transferred to 96 well plate tubes, capped and stored at −20° C. until shipment on dry ice to the analytical laboratory used for measuring the concentration of drug in the plasma. The concentration of the parent manganese pentaaza macrocylic ring complex (independent of the composition of the axial ligands) was measured in plasma using a validated HPLC/MS/MS method that is linear between 50 ng/mL and 20,000 ng/mL.\nThe oils used for preparing the dosing solutions were used as supplied from commercial sources. The Capmul MCM (NF) is a mixture of mono/diglycerides of caprylic/capric acids and was supplied by ABITEC Corporation, Janesville, Wis. The Miglyol 812 N is a mixture of caprylic/capric acid triglycerides and was supplied by Cremer Oleo Division, Eatontown, N.J. Labrafil M 2125 CS (NF) is chemically defined to be linoleoyl polyoxyl-6 glycerides NF and was supplied by Gattefosse, SAINT-PRIEST Cedex, France. Peceol is chemically defined to be the monoglyceride, glyceryl monooleate NF, and was supplied by Gattefosse, SAINT-PRIEST Cedex, France. Maisine 35-1 is chemically defined to be the monoglyceride glyceryl monolinoleate (NF) and was supplied by Gattefosse, SAINT-PRIEST Cedex, France. Labrasol (NF) is chemically defined to be caprylocaproyl polyoxyl-8 glycerides NF and was supplied by Gattefosse, SAINT-PRIEST Cedex, France. Labrafil M 1944 CS is chemically defined to be oleoyl polyoxyl-6 glycerides (NF), and is available from Gattefosse, SAINT-PRIEST Cedex, France. […]"}, "[2]": {"test_system": "rat model of inflammation", "settings": "ip; cited from earlier work"}, "[3]": {"test_system": "rats subjected to an experimental model of colitis", "settings": "ip injection; cited from earlier work"}, "[4]": {"test_system": "rat model of collagen-induced arthritis", "settings": "ip; cited from earlier work"}, "[5]": {"test_system": "hamster model of acute, radiation-induced oral mucositis", "settings": "ip; cited from earlier work"}, "[6]": {"test_system": "lethal total body irradiation of adult mice", "settings": "ip; cited from earlier work"}, "[7]": {"test_system": "oral mucositis in head-and-neck cancer patients", "settings": "intravenous (iv) infusion, head-and-neck cancer patients undergoing chemoradiation therapy; cited from earlier work"}, "[8]": {"test_system": "VEGFr inhibitor-induced pulmonary disease", "settings": "ip, rat model; cited from earlier work"}, "Solubility in water": {"experiment": "Solubility in water", "assay_type": "physicochemical"}, "[9]": {"settings": "base oil Capmul MCM, 10% by weight"}, "[10]": {"settings": "base oil Miglyol 812N, 10% by weight"}},
  "data": [
    {"compound": "[Cl-].[Cl-].[Mn+2].c1cc2nc(c1)CN[C@@H]1CCCC[C@H]1NCCN[C@@H]1CCCC[C@H]1NC2", "note": "[GC4403]", "values": [
      {"measurement": "Mini-Pig BioA", "setting": "[1]; [9]", "value": 9, "unit": "%"},
      {"measurement": "inflammation", "setting": "[2]", "value": "inhibit inflammation"},
      {"measurement": "injury to the colon", "setting": "[3]", "value": "significantly reduce the injury to the colon"},
      {"measurement": "joint disease", "setting": "[4]", "value": "prevent joint disease"},
      {"measurement": "radiation damage", "setting": "[5]", "value": "attenuate the radiation damage"},
      {"measurement": "radiation damage", "setting": "[6]", "value": "attenuate the radiation damage"}
    ]},
    {"compound": "[Cl][Mn][Cl].c1cc2nc(c1)CN[C@H]1CCCC[C@@H]1NCCN[C@H]1CCCC[C@@H]1NC2", "note": "[GC4419, reference compound]", "values": [
      {"measurement": "oral mucositis", "setting": "[7]", "value": "reduce oral mucositis"},
      {"measurement": "Mini-Pig BioA", "setting": "[1]; [9]", "value": 9, "unit": "%"},
      {"measurement": "Mini-Pig BioA", "setting": "[1]; base oil Labrafil M2125 CS, 10% by weight", "value": 7, "unit": "%"},
      {"measurement": "Mini-Pig BioA", "setting": "[1]; base oil Maisine 35-1, 10% by weight", "value": 8, "unit": "%"},
      {"measurement": "Mini-Pig BioA", "setting": "[1]; [10]", "value": 8, "unit": "%"},
      {"measurement": "Mini-Pig BioA", "setting": "[1]; base oil Peceol, 10% by weight", "value": 9, "unit": "%"},
      {"measurement": "VEGFr inhibitor-induced pulmonary disease", "setting": "[8]", "value": "attenuate VEGFr inhibitor-induced pulmonary disease"},
      {"measurement": "solubility in water", "setting": "Solubility in water", "value": "relatively readily soluble in water"}
    ]},
    {"compound": "Manganese(II)bis-racemic-phenylglycinato[2S,21S-Dimethyl(4aR,13aR,17aR,21aR)-1,2,3,4,4a,5,6,12,13,13a,14,15,16,17,17a,18,19,20,21,21a-Eicosahydro-11,7-nitrilo-7H-dibenzo[b,h][1,4,7,10]tetraazacycloheptadecine-κN5,κN13,κN18,κN21,κN22]- [GC4715]", "values": [
      {"measurement": "Mini-Pig BioA", "setting": "[1]; [9]", "value": 36, "unit": "%"}
    ]},
    {"compound": "Manganese(II)bis-racemic-phenylglycinato[6R-Methyl(4aR,13aR,17aR,21aR)-1,2,3,4,4a,5,6,12,13,13a,14,15,16,17,17a,18,19,20,21,21a-Eicosahydro-11,7-nitrilo-7H-dibenzo[b,h][1,4,7,10]tetraazacycloheptadecine-κN5,κN13,κN18,κN21,κN22]- [GC4716]", "values": [
      {"measurement": "Mini-Pig BioA", "setting": "[1]; [9]", "value": 34, "unit": "%"}
    ]},
    {"compound": "Manganese(II)bis-racemic-phenylglycinato[(4aR,13aR,17aR,21aR)-1,2,3,4,4a,5,6,12,13,13a,14,15,16,17,17a,18,19,20,21,21a-Eicosahydro-11,7-nitrilo-7H-dibenzo[b,h][1,4,7,10]tetraazacycloheptadecine-κN5,κN13,κN18,κN21,κN22]- [GC4717]", "values": [
      {"measurement": "Mini-Pig BioA", "setting": "[1]; [9]", "value": 26, "unit": "%"}
    ]},
    {"compound": "Manganese(II)bis-racemic-phenylglycinato[(4aS,13aS,17aS,21aS)-1,2,3,4,4a,5,6,12,13,13a,14,15,16,17,17a,18,19,20,21,21a-Eicosahydro-11,7-nitrilo-7H-dibenzo[b,h][1,4,7,10]tetraazacycloheptadecine-κN5,κN13,κN18,κN21,κN22]- [GC4720]", "values": [
      {"measurement": "Mini-Pig BioA", "setting": "[1]; [9]", "value": 33, "unit": "%"},
      {"measurement": "Mini-Pig BioA", "setting": "[1]; [10]", "value": 32, "unit": "%"}
    ]}
  ]
}
